In BindingDB's records for doi:10.1021/jm0494669 (Italy. Vinc, 2004):
pIC50: −log10 of the molar value.

Target: RNA-directed RNA polymerase (Hepacivirus hominis, UniProt Q8JXU8)
Experiment: Inhibitory concentration required to inhibit HCV RNA dependent RNA polymerase Nonstructural protein 5B is determined

Sequence of RNA-directed RNA polymerase (Q8JXU8 whole entry): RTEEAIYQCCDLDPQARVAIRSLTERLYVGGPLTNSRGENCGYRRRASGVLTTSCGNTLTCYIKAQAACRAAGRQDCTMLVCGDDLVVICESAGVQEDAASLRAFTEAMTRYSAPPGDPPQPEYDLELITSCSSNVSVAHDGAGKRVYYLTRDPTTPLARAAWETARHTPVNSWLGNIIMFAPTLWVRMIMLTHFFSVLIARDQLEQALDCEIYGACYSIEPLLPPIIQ

O=C(O)C(=O)CC(=O)c1ccccc1
pIC50: 5.24
